Results from ChEMBL document CHEMBL1156072, “Twenty-six years of anti-HIV drug discovery: where do we stand and where do we go?” (J Med Chem, 2010).

How the values were obtained:
[1] = Oral bioavailability in dog; assay type: ADME, organism-based, Canis lupus familiaris; settings: in vivo
[2] = Oral bioavailability in rat; assay type: ADME, organism-based; settings: in vivo

**Q.** What does the source list for `COc1cc2c(cc1Cc1cccc(Cl)c1F)c(=O)c(C(=O)O)cn2[C@H](CO)C(C)C` [ELVITEGRAVIR]?
**A.** bioavailability [1]: 30%; bioavailability [2]: 34%
